Measured values from PubChem BioAssay (NCI).
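Dose response: 5 concentrations. Exposure: 48 h. Format: 96-well plates. Endpoint: linear interpolation; highest concentration if not reached. The concentration for full growth arrest is given as TGI.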

Experiments:
Test in all cases: growth of human tumour cells (NCI), 48 h
[1] = system: OVCAR-8 ovarian
[2] = system: K-562 leukemia
[3] = system: OVCAR-3 ovarian
[4] = system: NCI/ADR-RES ovarian
[5] = system: HL-60(TB) leukemia
[6] = system: HOP-62 NSCLC
[7] = system: UO-31 renal
[8] = system: SK-MEL-2 melanoma
[9] = system: NCI-H460 lung
[10] = system: SN12C renal
[11] = system: MOLT-4 leukemia
[12] = system: KM12 colon
[13] = system: OVCAR-4 ovarian
[14] = system: HCC-2998 colon
[15] = system: SK-OV-3 ovarian
[16] = system: BT-549 breast
[17] = system: SK-MEL-28 melanoma
[18] = system: OVCAR-5 ovarian
[19] = system: HCT-15 colon
[20] = system: MDA-N

Compound	TGI [1] [µM]	TGI [2] [µM]	TGI [3] [µM]	TGI [4] [µM]	TGI [5] [µM]	TGI [6] [µM]	TGI [7] [µM]	TGI [8] [µM]	TGI [9] [µM]	TGI [10] [µM]	TGI [11] [µM]	TGI [12] [µM]	TGI [13] [µM]	TGI [14] [µM]	TGI [15] [µM]	TGI [16] [µM]	TGI [17] [µM]	TGI [18] [µM]	TGI [19] [µM]	TGI [20] [µM]
CCOC(=O)c1cc2cc(Cc3ccc4[nH]c(C(=O)OCC)cc4c3)ccc2[nH]1	23.6	> 100	> 100	52.6	> 100	23	> 100	81.1	> 100	> 100	> 100	> 100	21.4	> 100	55.4	26.8	> 100	> 100	> 100	> 100
O=C1N[C@H]2c3c(Cl)sc(Cl)c3C(=O)[C@H]2O1	12.2	> 30.7	36.8	37.2	4.98	42	38.3	> 59.9	37	> 47.6	5.11	> 100	37.5	19.9	52.1	45	24.7	51.1	5.51	> 57.5
COc1c(C2(c3ccc(F)cc3)SCCCS2)c(=O)c1=O	> 100	> 100	> 100	> 100	> 100	> 100	> 100	> 100	> 100	> 100	> 100	> 100	> 100	> 100	> 100	> 100	> 100	> 100	> 100	> 100
